Source: patent publication US11401271B2, “Fused heterocyclic compound, pyrazole-ring-containing fused heterocyclic compound, agricultural composition containing thereof, and method of using the composition” (SOUTH CHINA AGRICULTURAL UNIVERSITY, priority 2017, dated 2022)
Like-named read-outs stand apart in the source and are kept apart here.

What was measured:
Format in all cases: in vivo
Plutella xylostella = test: whole plant or invertebrate; details: Plutella xylostella, read-out: Plutella xylostella Mortality (%) 500 ppm
How it was run: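 Leaf immersion feeding test: 2nd-instar larvae (about 35 per vessel, 3 replicates) kept at 28° C. on 1.0 cm cabbage discs soaked 5 s in a 500 ppm solution with 0.05% Tween-80. Mortality after 24 h of exposure, calculated relative to live larvae in the Tween-80 control.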

Apis cernan = test: Toxicity test on adult worker bees of Apis cernan, small beaker method; details: 500 ppm, 48 hours
Protocol: (2) Toxicity Test on Adult Worker Bees of Apis cernan.
Adult worker bees of Apis cernan having the same size were selected for test. The worker bees were collected from beekeeping boxes in the daystart of the test day and tested by using a small beaker method.
Operation process: A small amount of absorbent cotton was put into a 5 mL small beaker, 5 mL of a test liquid medicine (a concentration of 500 ppm) was dropped into the absorbent cotton, and stirred gently to make the absorbent cotton completely wet but not leached obviously, then the small beaker was put into a 500 mL large beaker, then 15 worker bees were put into the large beaker, and finally the large beaker was sealed with gauze. After treatment, the large beaker was placed in a dark room of an artificial climate box. After taking the medicine for 48 hours, a number of live and dead worker bees were investigated.

Bombyx mori L. = test: Toxicity test on 2nd-instar larvae of Bombyx mori L., leaf immersion feeding method; details: 1000 ppm, 24 hours
Protocol: (1) Toxicity Test on 2nd-Instar Larvae of Bombyx mori L.
Bombyx mori L. is an important economic insect sensitive to pesticides in an agricultural ecosystem, and is also one of the non-target organisms of environmental ecology listed in pesticide registration of China. The 2nd-instar larvae of Bombyx mori L. were used as test objects and tested by using a leaf immersion feeding method.
Operation process: Samples were weighed accurately, and respectively added with 200 μL of dimethyl sulfoxide to prepare 10 g/L mother liquor which was diluted into a concentration of 1000 ppm with an aqueous solution containing 0.05% of Tween-80 during the test. Young cotyledons of mulberries were collected, washed and air-dried, immersed in a liquid medicine, taken out after 5 seconds, naturally air-dryed, and then transferred into a clean vessel. About 35 2nd -instar larvae of Bombyx mori L. were put into the vessel and fed at a constant temperature of 25° C. Each concentration was repeated 3 times, and an aqueous solution containing 0.05% of Tween-80 was used as a control group. After being treated for 24 hours, a number of dead Bombyx mori L. was counted, and a mortality (%) was calculated according to a formula that mortality (%)=(number of live larvae in the control group −number of treated live larvae)/number of live larvae in the control group * 100%.

Aphis craccivora = test: whole plant or invertebrate; details: Aphis craccivora, 24 h, read-out: Aphis craccivora Mortality (%) 500 ppm
How it was run: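 Mortality scored 24 h after treatment as the reduction in live aphids versus a 0.05% Tween-80 control; three replicates, 23° C. Treatment was a 5 s immersion of wingless adults on bean sprouts in 500 ppm test solution containing 0.05% Tween-80, followed by air-drying.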

Spodoptera exigua = test: whole plant or invertebrate; details: Spodoptera exigua, 24 h, read-out: Spodoptera exigua Mortality (%) 500 ppm
How it was run: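 Leaf immersion feeding: second-instar larvae (about 35 per vessel, triplicate) kept at 28° C on discs treated with 500 ppm test solution in 0.05% Tween-80. Mortality at 24 h, calculated relative to surviving larvae in the solvent control.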

Solenopsis invicta = test: whole plant or invertebrate; details: Solenopsis invicta, water test tube poison-feeding
How it was run: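 Mortality (%) of Solenopsis invicta, computed against live counts in control tubes, was recorded 24 h and 72 h after treatment at 25 °C. Compound was offered by oral feeding in test tubes at 100 ppm, diluted from a 10 g/L DMSO stock into water with 5% honey and 0.05% Tween-80.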

[1] = 24 h, read-out: Solenopsis invicta Mortality (%) 100 ppm 24 h, 100 ppm, 24 h
[2] = 72 h, read-out: Solenopsis invicta Mortality (%) 100 ppm 72 h, 100 ppm, 72 h

| Compound | mortality at 500 ppm (Plutella xylostella) | Toxicity determination Apis cernan Mortality (%) (Apis cernan) | Toxicity determination Bombyx mori L. Mortality (%) (Bombyx mori L.) | mortality at 500 ppm (Aphis craccivora) | mortality at 500 ppm (Spodoptera exigua) | mortality at 100 ppm (Solenopsis invicta; [1]) | mortality at 100 ppm (Solenopsis invicta; [2]) |
| --- | --- | --- | --- | --- | --- | --- | --- |
| C=CC1(CC(F)(F)F)Nc2c([S+]([O-])C(F)(F)F)c(C#N)nn2-c2c(Cl)cc(C(F)(F)F)cc21 (stereo not shown) [Compound C14] | 100% | 10% | 10% | 100% | 100% | 30% | 100% |
| C=CC1(C(F)(F)F)Nc2c([S+]([O-])C(F)(F)F)c(C#N)nn2-c2c(Cl)cc(C(F)(F)F)cc21 (stereo not shown) [Compound C15] | 89% | 7% | 8% | 100% | 100% | 29% | 90% |
| C=CC1(CCl)Nc2c([S+](C)[O-])c(C#N)nn2-c2c(Cl)cc(C(F)(F)F)cc21 (stereo not shown) [Compound C18] | 90% | 5% | 6% | 98% | 86% | 20% | 70% |
| C=CC1(CC#N)Nc2c([S+]([O-])C(F)(F)F)c(C#N)nn2-c2c(Cl)cc(C(F)(F)F)cc21 (stereo not shown) [Compound C20] | 100% | 10% | 8% | 100% | 100% | 28% | 99% |
| N#CCC1(CO)Nc2c([S+]([O-])C(F)(F)F)c(C#N)nn2-c2c(Cl)cc(C(F)(F)F)cc21 (stereo not shown) [Compound C24] | 100% | 10% | 11% | 100% | 100% | 36% | 100% |
| CC[S+]([O-])c1c(C#N)nn2c1NC(CO)(CC#N)c1cc(C(F)(F)F)cc(Cl)c1-2 (stereo not shown) [Compound C25] | 92% | 0% | 3% | 86% | 97% | 25% | 71% |
| C[S+]([O-])c1c(C#N)nn2c1NC(CO)(CC#N)c1cc(C(F)(F)F)cc(Cl)c1-2 (stereo not shown) [Compound C26] | 89% | 4% | 4% | 100% | 90% | 20% | 80% |
| CN(C)CC1(CC#N)Nc2c([S+]([O-])C(F)(F)F)c(C#N)nn2-c2c(Cl)cc(C(F)(F)F)cc21 (stereo not shown) [Compound C29] | 100% | 4% | 0% | 100% | 93% | 30% | 100% |
| N#CCC1(C(=O)O)Nc2c([S+]([O-])C(F)(F)F)c(C#N)nn2-c2c(Cl)cc(C(F)(F)F)cc21 (stereo not shown) [Compound C30] | 100% | 0% | 0% | 92% | 90% | 24% | 100% |
| COC(=O)C1(CC#N)Nc2c([S+]([O-])C(F)(F)F)c(C#N)nn2-c2c(Cl)cc(C(F)(F)F)cc21 (stereo not shown) [Compound C31] | 100% | 8% | 3% | 100% | 100% | 34% | 100% |
